The text below walks through data of patent EP0677039B1, “CYCLOBUTANE DERIVATIVES AS INHIBITORS OF […] SYNTHETASE AND PROTEIN […]” (Abbott Laboratories, priority 1993, dated 1995).

The inhibition is the change of the read-out against control, counted positive when it falls.

In the first assay the target is T1, Rat liver microsomal squalene synthetase (Rattus norvegicus, UniProt Q02769).
T1 construct: Rat liver microsome, the source of enzyme; from tissue; host or cells: rat liver microsomes
T1 sequence (Q02769 1-416): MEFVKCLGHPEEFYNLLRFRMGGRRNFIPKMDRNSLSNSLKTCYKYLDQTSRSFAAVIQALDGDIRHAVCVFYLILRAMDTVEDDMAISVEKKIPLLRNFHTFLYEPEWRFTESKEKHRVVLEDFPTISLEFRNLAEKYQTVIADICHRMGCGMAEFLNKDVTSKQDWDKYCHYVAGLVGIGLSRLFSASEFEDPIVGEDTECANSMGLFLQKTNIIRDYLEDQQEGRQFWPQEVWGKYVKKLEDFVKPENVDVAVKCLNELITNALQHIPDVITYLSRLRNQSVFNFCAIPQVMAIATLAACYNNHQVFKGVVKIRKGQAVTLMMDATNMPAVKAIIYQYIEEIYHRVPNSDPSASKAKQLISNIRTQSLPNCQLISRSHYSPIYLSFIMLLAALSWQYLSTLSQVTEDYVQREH
Description: In vitro inhibition of squalene synthetase. The class given is biochemical. Particulars: 10 µM test compound; rat liver microsomes, labelled farnesyl pyrophosphate, 10 minutes at 37 °C; compared to controls with no test compound. The protocol:
In vitro inhibition of squalene synthetase may be measured by the following procedure. Rat liver microsomal squalene synthetase activity was measured using farnesyl pyrophosphate as a substrate and quantitating squalene synthesis using labelled farnesyl pyrophosphate and counting the squalene formed. Rat liver microsome, the source of enzyme, was prepared according to the method of Gillies, P. J., et al., Exp. Molc. Pathol. 44: 329-339 (1986), a modification of the procedure of Erickson, S. K., and Cooper, A. D., Metabolism, 29: 991-996 (1980). […] Oxygen was excluded from the closed incubation tube by degassing with nitrogen. The reaction was terminated by the addition of ethanolic KOH and after degassing with N2, the microsomal membranes were solubilized by heating at 60 °C for 30 minutes. The squalene was extracted into hexane, and the squalene was separated from all other radioactive molecules by passage over an activated alumina column. […] The per cent inhibition at a dose of 10 µM (or 1 µM) compared to controls with no test compound was determined. […]
(In general: Liver microsomes are vesicles of endoplasmic reticulum, rich in cytochrome P450 enzymes.)
Regarding `CCCN(Cc1ccc(Oc2ccccc2)c(C)c1)C(=O)C1C(C(=O)O)C(C(=O)O)C1C(=O)N(CCC)Cc1ccc(Oc2ccccc2)c(C)c1` (stereo not drawn) [Example 89C, (1α,2β,3β,4α)-1-2-Di{N-propyl-[3-methyl-4-phenoxybenzyl]aminocarbonyl}cyclobutane-3,4-dicarboxylic acid], the inhibition at 10 µM worked out at 88%.
Compound `COCCN(Cc1ccc(Oc2ccccc2)cc1)C(=O)C1C(C(=O)O)C(C(=O)O)C1C(=O)N(CCOC)Cc1ccc(Oc2ccccc2)cc1` (stereo not drawn) [Example 40B, (1α,2β,3β,4α)-1,2-Di[N-(2-methoxyethyl)-N-(4-phenoxybenzyl)aminocarbonyl]cyclobutane-3,4-dicarboxylic acid] came in with an inhibition at 10 µM of 82%.
`O=C(O)C1C(C(=O)O)C(C(=O)N(Cc2ccccc2)Cc2ccccc2)C1C(=O)N(Cc1ccccc1)Cc1ccccc1` (stereo not drawn) [Example 121, (1α,2β,3β,4α)-1,2-Di[N,N-dibenzylaminocarbonyl]cyclobutane-3,4-dicarboxylic acid] gave an inhibition at 10 µM of 44%.
With `O=C(O)C1C(C(=O)O)C(C(=O)N(Cc2ccc(Oc3ccccc3)cc2)CC2CC2)C1C(=O)N(Cc1ccc(Oc2ccccc2)cc1)CC1CC1` (stereo not drawn) [Example 47B, (1α,2β,3β,4α)-1,2-Di[N-(cyclopropylmethyl)-N-(4-phenoxybenzyl)aminocarbonyl]cyclobutane-3,4-dicarboxylic acid], 10 µM produced 87% inhibition.
The same measure, in the same setting: as for `CCCN(CCc1ccc(Oc2ccccc2)cc1)C(=O)[C@H]1[C@@H](C(=O)O)[C@H](C(=O)O)[C@@H]1C(=O)N(CCC)CCc1ccc(Oc2ccccc2)cc1` [Example 38H, (1α,2β,3β,4α)-1,2-Di[N-propyl-N-(2-(4-phenoxyphenyl)ethyl)aminocarbonyl]cyclobutane-3,4-dicarboxylic acid], the figure is 51%; as for `CCCN(Cc1ccc(Oc2ccccc2)cc1)C(=O)[C@H]1[C@@H](C(=O)O)[C@H](C(=O)O)[C@@H]1C(=O)N(Cc1ccccc1)Cc1ccc(Oc2ccccc2)cc1` [Example 63, (1α,2β,3β,4α)-1-[N-Propyl-N-(4-phenoxybenzyl)aminocarbonyl]-2-[N-benzyl-N-(4-phenoxybenzyl)aminocarbonyl]cyclobutane-3,4-dicarboxylic acid], 90%; as for `O=C(O)[C@H]1[C@H](C(=O)O)[C@H](C(=O)N(CCCCc2ccccc2)Cc2ccc(Oc3ccccc3)cc2)[C@H]1C(=O)N(CCCCc1ccccc1)Cc1ccc(Oc2ccccc2)cc1` [Example 58, (1α,2β,3β,4α)-1,2-Di[N-(4-phenoxybenzyl)-N-(4-phenyl-1-butyl)aminocarbonyl]cyclobutane-3,4-dicarboxylic acid], 63%.
The same measure, in the same setting: the figure for `CCCN(Cc1cccc(Oc2ccccc2)c1)C(=O)C1C(C(=O)O)C(C(=O)O)C1C(=O)N(CCC)Cc1cccc(Oc2ccccc2)c1` (stereo not drawn) [Example 81B, (1α,2β,3β,4α)-1,2-Di[N-propyl-N-(3-phenoxybenzyl)aminocarbonyl]cyclobutane-3.4-dicarboxylic acid] is 73%.
In the case of `CCCN(Cc1ccc(Oc2ccco2)cc1)C(=O)C1C(C(=O)O)C(C(=O)O)C1C(=O)N(CCC)Cc1ccc(Oc2ccco2)cc1` (stereo not shown) [Example 84G], the inhibition at 10 µM worked out at 89%.
`CCCN(Cc1ccc(Oc2ccccc2)o1)C(=O)C1C(C(=O)O)C(C(=O)O)C1C(=O)N(CCC)Cc1ccc(Oc2ccccc2)o1` (stereo not drawn) [Example 82B, (1α,2β,3β,4α)-1,2-Di[N-propyl-N-(5-phenoxyfurfuryl)aminocarbonyl}cyclobutane-3,4-dicarboxylic acid] came in with an inhibition at 10 µM of 67%.
On to `CCCN(Cc1ccc(Oc2ccccc2)cc1)C(=O)[C@@H]1[C@H](C(=O)O)[C@@H](C(=O)NO)[C@H]1C(=O)N(CCC)Cc1ccc(Oc2ccccc2)cc1` (relative stereo) [Example 98C, (1α,2β,3β,4α)-1,2-Di[N-propyl-N-(4-phenoxybenzyl)aminocarbonyl]-3-[(hydroxyamino)carbonyl]cyclobutane-4-carboxylic Acid], for which testing at 10 µM gave an inhibition of 84%.
Compound `COc1cccc(CCN(Cc2ccc(Oc3ccccc3)cc2)C(=O)C2C(C(=O)O)C(C(=O)O)C2C(=O)N(CCc2cccc(OC)c2)Cc2ccc(Oc3ccccc3)cc2)c1` (stereo not drawn) [Example 54B, (1α,2β,3β,4α)-1,2-Di[N-(4-phenoxybenzyl)-N-(3-methoxyphenethyl)aminocarbonyl]cyclobutane-3,4-dicarboxylic acid] yielded an inhibition at 10 µM of 74%.

The same assay, now with this note: values marked * in Table 1: 1 µM test compound; rat liver microsomes, labelled farnesyl pyrophosphate, 10 minutes at 37 °C.
For `CCCN(Cc1ccc(Oc2ccccc2)cc1)C(=O)C1C(C(=O)O)C(C(=O)NCCC(=O)O)C1C(=O)N(CCC)Cc1ccc(Oc2ccccc2)cc1` (stereo not drawn) [Example 111, (1α,2β,3β,4α)-1,2-Di[N-propyl-N-(4-phenoxybenzyl)aminocarbonyl]cyclobutane-3,4-dicarboxylic acid mono-β-Alanine amide], the inhibition at 1 µM worked out at 49%.
`O=C(O)[C@H]1[C@H](C(=O)O)[C@H](C(=O)N(Cc2ccc(Oc3ccccc3)cc2)CC2CCCCC2)[C@H]1C(=O)N(Cc1ccc(Oc2ccccc2)cc1)CC1CCCCC1` [Example 31]: the inhibition at 1 µM came out at 37%.
Compound `CCCN(Cc1ccc(Oc2ccccc2)cc1)C(=O)C1C(C(=O)O)C(C(=O)NC(CC(=O)O)C(=O)O)C1C(=O)N(CCC)Cc1ccc(Oc2ccccc2)cc1` (stereo not drawn) [Example 109, (1α,2β,3β,4α)-1,2-Di[N-propyl-N-(4-phenoxybenzyl)aminocarbonyl]cyclobutane-3,4-dicarboxylic acid mono-d,l-Aspartic acid amide] displayed an inhibition at 1 µM of 78%.
On the same count and under the same terms, as for `CCCN(Cc1ccc(Oc2ccccc2)cc1)C(=O)[C@@H]1[C@H](C(=O)O)[C@@H](CC(=O)O)[C@H]1C(=O)N(CCC)Cc1ccc(Oc2ccccc2)cc1` (relative stereo) [Example 101C], the figure is 86%; as for `CCCN(Cc1ccc(COc2ccccc2)cc1)C(=O)C1C(C(=O)O)C(C(=O)O)C1C(=O)N(CCC)Cc1ccc(COc2ccccc2)cc1` (stereo not drawn) [Example 69E, (1α,2β,3β,4α)-1,2-Di[N-propyl-N-[4-phenoxymethylbenzyl]aminocarbonyl]cyclobutane-3,4-dicarboxylic acid], 56%; as for `O=C(O)C1C(C(=O)O)C(C(=O)N(CCF)Cc2ccc(Oc3ccccc3)cc2)C1C(=O)N(CCF)Cc1ccc(Oc2ccccc2)cc1` (stereo not drawn) [Example 43, (1α,2β,3β,4α)-1,2-Di[N-(2-fluoroethyl)-N-(4-phenoxybenzyl)aminocarbonyl]cyclobutane-3,4-dicarboxylic acid], 47%.
Still for that read-out and setting: as for `CCCN(Cc1ccc(Oc2ccccc2)cc1)C(=O)C1C(C(=O)O)C(C(=O)NC(CO)C(=O)O)C1C(=O)N(CCC)Cc1ccc(Oc2ccccc2)cc1` (single isomer, unassigned) [Example 110A, (1α,2β,3β,4α)-1,2-Di[N-propyl-N-(4-phenoxybenzyl)aminocarbonyl]cyclobutane-3.4-dicarboxylic acid mono-Serine amide], the figure is 73%.
Still for that read-out and setting: the figure for `CCCN(Cc1ccc(Oc2ccccc2)cc1)C(=S)C1C(C(=O)O)C(C(=O)O)C1C(=S)N(CCC)Cc1ccc(Oc2ccccc2)cc1` (stereo not drawn) [Example 130B, (1α,2β,3β,4α)-1,2-Di[N-propyl-N-(4-phenoxybenzyl)aminothiocarbonyl]cyclobutane-3,4-dicarboxylic acid] is 48%.
On to “(1α,2β,3β,4α)-1,2-Di[N-propyl-N-(4-phenoxybenzyl)aminocarbonyl]cyclobutane-3,4-dicarboxylic acid mono-d-Norleucine amide [Example 112]”, for which the “% Inhibition at 1 µM” value is 21* %.
`CCCN(Cc1ccc(Oc2ccccc2)cc1)C(=O)C1C(Cc2nn[nH]n2)C(C(=O)O)C1C(=O)N(CCC)Cc1ccc(Oc2ccccc2)cc1` (stereo not shown) [Example 73B]: the inhibition at 1 µM amounted to 75%.

The same assay, now with this note: values marked * in Table 1: 1 µM test compound; rat liver microsomes, labelled farnesyl pyrophosphate, 10 minutes at 37 °C; 1 µM.
For `CCCCC(NC(=O)[C@@H]1[C@@H](C(=O)O)[C@@H](C(=O)N(CCC)Cc2ccc(Oc3ccccc3)cc2)[C@@H]1C(=O)N(CCC)Cc1ccc(Oc2ccccc2)cc1)C(=O)O` (single isomer, unassigned) [Example 104B, (1α,2β,3β,4α)-1,2-Di[N-propyl-N-(4-phenoxybenzyl)aminocarbonyl]cyclobutane-3,4-dicarboxylic acid Mono-Norleucine Amide], the “% Inhibition at 1 µM” value is given as 71* %.
With “(1α,2β,3β,4α)-1,2-Di[N-propyl-N-(4-phenoxybenzyl)aminocarbonyl]cyclobutane-3-phenoxycarbonyl-4-carboxylic acid [Example 105A]”, the “% Inhibition at 1 µM” value is reported as 48* %.
Same read-out and setting: as for “(1α,2β,3β,4α)-1,2-Di[N-propyl-N-(4-phenoxybenzyl)aminocarbonyl]cyclobutane-3-phenoxycarbonyl-4-carboxylic acid [Example 105B]”, the figure is 57* %.
